Data reported in patent US10124065B2, “Lipids and lipid compositions for the delivery of active agents” (Novartis AG, priority 2013, dated 2018).

Columns and labels:
[1] = Particle size of lipid nanoparticle (dynamic light scattering, Malvern Zetasizer); format: physicochemical
Summary of the method: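 Sizes are average diameters of fully formed nanoparticles measured by dynamic light scattering. Samples were diluted in PBS to a count rate of about 200–400 kcts. Values are intensity-weighted Z-average sizes.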

[2] = Measurement of mRNA encapsulation (Quant-iT Ribogreen); format: physicochemical; conditions: leptin mRNA in lipid nanoparticles (cationic lipid, DSPC, cholesterol, stealth lipid)
Procedure: All equipment and disposable supplies were certified free of RNase activity by the manufacturer or rendered RNase free by use of the RNaseZap reagent (LifeTechnologies). mRNA was encapsulated at a cationic lipid amine to mRNA phosphate (N:P) molar ratio of 4:1. Lipids (cationic lipid, DSPC, cholesterol and lipidated PEG or stealth lipid) were dissolved in ethanol. The molar ratios were […], respectively. The mixture was sonicated briefly, then gently agitated for 5 minutes and then maintained at 37° C. until use. mRNA was exchanged into citrate buffer pH 5.8-6.0 by use of Amicon Ultra-15 centrifugal concentrators, and the final concentration was adjusted to 0.5 mg/ml and held at 37° C. until use. An equal volume of lipids in ethanol, mRNA in citrate buffer, and citrate buffer alone were drawn into disposable syringes. Tubing leading from syringes containing lipids and mRNA are attached to the T junction, and tubing leading from the syringe containing citrate buffer alone was paired with the tubing exiting the T-junction over a collection vessel containing a stir bar on an active stir plate. Syringes were placed in a syringe pump set to expel contents at a flow rate of 1 ml per minute.
The pump was activated, and the collected mRNA in lipid nanoparticles was transferred to SnakeSkin dialysis tubing (10,000 MWCO, Thermo Scientific). Material was dialyzed against RNAse- and pyrogen-free 1× phosphate buffered saline overnight at 4° C.
Percent encapsulation of mRNA in lipid nanoparticles was determined using the Quant-iT Ribogreen RNA Assay kit (Life Technologies). The LNP-mRNA suspension was assayed in buffer (mRNA outside the particle), and buffer plus Triton X-100 detergent (total mRNA). The difference calculated was the mRNA inside the particle. A 1000 ng/mL stock from the RNA provided in the kit was prepared and used to generate a standard curve (0 ng/ml, 15.63-1000 ng/ml) in TE and TE+0.75% Triton X-100. LNP-mRNA samples in TE buffer and TE buffer+0.75% Triton X-100 were prepared with appropriate dilution so that reading was in the range of standard curve (400-2,000 fold). In a 384-well plate (Costar non-treated #3573) 0.04 ml of standard (in duplicate) or sample (in triplicate) were added per well. Ribogreen reagent was diluted 240-fold in TE buffer and added 0.06 ml per well. The contents of wells were mixed and fluorescence was measured (excitation=480 nm, emission=520 nm). Background values (no RNA) were subtracted from standard and test sample values and the concentrations of RNA were determined in the samples using the standard curves. The percent encapsulation of the sample was determined by dividing the difference in concentrations between sample+triton and sample in buffer alone by the sample+triton concentration.

human leptin = test: Mouse subcutaneous injection of modified synthetic leptin mRNA, human leptin ELISA; format: in vivo; conditions: human leptin in mouse plasma, 10 μg leptin mRNA
Procedure: Prior to subcutaneous injection, mouse body weights were recorded and diet weighted, with mice grouped according to their body weights. The mice were manually restrained and placed on a work surface. Their scruffs were pinched and lifted away from the underlying muscle, the space into which was inserted a 25 gauge needle connected with a 1 ml syringe. The syringe plunger was pulled backwards in such a way as to ensure no fluid was drawn into the syringe, and then the desired volume of leptin mRNA was hand injected with moderate pressure and speed. The needle was then withdrawn and the mice returned to their cages.
8-9 week old, male C57BL/6 mice were used for the in vivo study. FPLC purified modified synthetic leptin mRNA (SEQ ID NO: 5) in which the uridines were substituted with pseudouridine (N:P molar ratio=8:1) packaged in multiple cationic lipid were diluted in injectable saline at a dose of 10 μg per average group body weight.
On day 0, animals were weighed and sorted according to average body weight. ice were dosed at 9 AM and blood was taken at 9 AM on day 0. Blood was also taken at 9 AM on each of days 1 and 2 and assessed for leptin protein levels. Body weight and food intake were also recorded.
Human leptin in mouse plasma was measured by ELISA. Antibodies purchased from the R&D Systems duoset (Cat# DY398E, part#840279 for capture antibody and part#840280 for detection antibody) were reconstituted using PBS and titered, again using PBS. The capture antibody was coated at 4 ug/ml in 30 ul/well on a white Nunc® Maxisorp 384 well plate (Cat#460372). After an overnight incubation at room temperature the capture antibody was aspirated and the plate blocked for 2 hours at room temperature with 90 ul/well of KPL milk blocker (Cat#50-82-00). Once the incubation was completed the plate was aspirated and recombinant standards and samples were added to the plate at 30 ul/well for 2 hours at 37° C. while shaking at 600 rpm. Sample/standard dilutions were made using casein sample diluent. Washing/aspiration 3 times with 100 ul/well followed, using Teknova plate wash solution (Cat# P1192). Next, detection antibody was diluted using casein detection antibody diluent to 12.5 ng/ml and added at 30 ul/well for 2 hours room temperature. After this incubation, the plate was washed again and a solution of poly-streptavidin-HRP (Cat#21140) at a 1:1250 dilution in HRP dilution buffer was added to each well (30 ul/well) and incubated for 30 minutes room temperature. A final wash/aspiration removed the HRP solution and a chemiluminescent substrate was added at 30 ul/well (Cat#1859678 & 1859679). The plate was quickly read using a SpectramaxM5 plate reader with a 50 ms integration time. The dynamic range of the ELISA is from 100-2,000 pg/ml (6.25-125 pM) of human leptin. The assay is applicable to plasma from mice, rats and cynomolgus monkeys.

Compound: CCCCCCCCCCOC(=O)CCCCCCCOc1cc(CN(C)C)cc(OCCCCCCCC(=O)OCCCCCCCCCC)c1 [Example 57, didecyl 8,8′-((5-((dimethylamino)methyl)-1,3-phenylene)bis(oxy))dioctanoate]
- Size (nm) ([1]; FVII siRNA LNP, Chol/DSPC/PEG-DMG, molar ratio 45/44/9/2, Z-average): 108.4 nm
- Size (nm) ([1]; FVII siRNA LNP, Chol/DSPC/S010, molar ratio 45/44/9/2, Z-average): 123.8 nm
- Size (nm) ([1]; PLK1-424 siRNA LNP, Chol/DSPC/S010 45/44/9/2): 116.3 nm
- Size (nm) ([1]; leptin mRNA lipid nanoparticles): 127.8 nm
- % encapsulation [2]: 96.0%

Compound: CCCCC/C=C\C/C=C\CCCCCCCC(=O)OCCCCOc1cc(CN(C)C)cc(OCCCCOC(=O)CCCCCCC/C=C\C/C=C\CCCCC)c1 [Example 38, (9Z,9′Z,12Z,12′Z)-((5-((dimethylamino)methyl)-1,3-phenylene)bis(oxy))bis(butane-4,1-diyl)bis(octadeca-9,12-dienoate)]
- Leptin expression SC-C57BI/6, 24 h (human leptin): 0.99 ng/mL
